Source: patent US20130029981A1, “COMPOUNDS, COMPOSITIONS, AND METHODS FOR CONTROLLING BIOFILMS” (Katholieke Universiteit Leuven, priority 2009, published 2013)

What was measured:
Type in all cases: cell-based
[1] = test system: Salmonella Typhimurium ATCC 14028; test: Antibacterial activity: growth inhibition, OD600 after 24 h (GIC50); settings: 25° C.
Description: Evaluation of antibacterial-inhibitory activity of some substituted 2-amino-1H-imidazoles of the invention was carried out by diluting an overnight culture of Salmonella Typhimurium ATCC 14028 into a liquid medium. 200 μl of the diluted overnight culture was added to each well of a microtiter plate together with different concentrations of the test compound (1/2 dilution series of the compound). After an incubation of 24 hours the optical density at 600 nm of each well was determined with a microtiter plate reader.
(§1) Starting from a 40 mM stock solution of each compound in DMSO, two-fold serial dilutions in 100 μl liquid broth per well were prepared in dublicate in sterile transparant microtiter plates. The broth used was TSB 1/20 for measurements at 25° C. and CFA (in case of Salmonella Typhimurium) and LBNS (in case of Pseudomonas aeruginosa) for measurements at 37° C. Subsequently an overnight culture of the bacteria (S. Typhimurium ATCC14028 or P. aeruginosa PA14) was diluted 1/200 into the corresponding liquid broth and 100 μl was added to each well of the microtiterplate resulting in a total amout of 200 μl medium per well. After an incubation of 24 hours the optical density at 600 nm of each well was determined with a microtiter plate reader (VERSAmax, Molecular Devices).
(§2) Evaluation of antibacterial-inhibitory activity of some substituted imidazo[1,2-a]pyrimidinium bromide salts of the invention was carried out by diluting an overnight culture of Salmonella Typhimurium ATCC14028 or Pseudomonas aeruginosa PA141/200 into liquid medium. 200 μl of the diluted overnight culture was added to each well of a microtiterplate together with different concentrations of the test compound (1/2 dilution series of the compound). After an incubation of 24 hours the optical density at 600 nm of each well was determined with a microtiter plate reader.

[2] = test system: Pseudomonas aeruginosa PA14; test: as above; settings: 25° C.
Description: as §1
as §2, with “reader. […] The GIC50 values of representative compounds for antibacterial activity are shown in the following Tables 9 and 10 (wherein Ph stands for phenyl, Me for methyl): […]” for “reader.”

[3] = test system: Pseudomonas aeruginosa PA14; test: Bioscreen assay: influence on planktonic growth curve; set-up: key: x: no influence on the planktonic growth at the IC50 for biofilm inhibition; ∘: planktonic growth is retarded at the IC50 for biofilm inhibition; settings: planktonic growth at the IC50 for biofilm inhibition, 25° C.
Excerpt: Some of the tested compounds show a concentration range in which biofilm formation is inhibited but no effect on planktonic growth is observed. These compounds are particularly interesting for prevention of biofilm formation since the development of resistance against these compounds is less likely. Table 8 indicates whether the different compounds have an effect on the planktonic growth of the bacteria at the IC50 for biofilm inhibition. To construct Table 8, the effect of the tested compounds on the growth curve of the bacteria was determined at a concentration equal to the IC50 for biofilm inhibition, by using the Bioscreen system available from Oy Growth Curves Ab Ltd). The Bioscreen device from Oy Growth Curves Ab Ltd was used for measuring the influence of the chemical compounds on the planktonic growth of Salmonella Typhimurium and Pseudomonas aeruginosa. The Bioscreen is a computer controlled incubator/reader/shaker that uses 10×10 well microtiter plates and measures light absorbance of each well at a specified wave length in function of time. An overnight culture of S. […] The broth used was TSB 1/20 for the experiments at 16° C. and 25° C. For experiments at 37° C. CFA medium was used for S. […] As a control 3 μl of the appropriate solvent (DMSO or EtOH) was also added to the plate in 3- or 4-fold. The microtiter plate was incubated in the Bioscreen device at 16° C., 25° C. or 37° C. for at least 36 hours, with continious medium shaking. The absorbance of each well was measured at 600 nm each 15 minutes. Excel was used to generate the growth curves for treated the treated wells and the untreated control wells. Some of the compounds show a concentration range in which biofilm formation is inhibited but no effect on the planktonic growth is observed. […] To construct this table the effect of the compounds on the growth curve of the bacteria was determined at a concentration equal to the IC50 for biofilm inhibtion, by using the Bioscreen system from Oy Growth Curves Ab Ltd.

Row | Structure (SMILES) | IC50 [2] | IC50 ([2]; Pseudomonas aeruginosa, PA14) | IC50 [1] | Influence on growth [3] | IC50 ([1]; listed as R1=Benzyl, R3=4-I—Ph, R4=H) | IC50 ([1]; listed as R1=benzyl, R3=4-I—ph, R4=H) | IC50 ([1]; Salmonella enterica)
1 | CCCCCCN1c2nccc[n+]2CC1(O)c1ccc([N+](=O)[O-])cc1.[Br-] (stereo not shown) [Compound 34] |  |  | 100 to 200 µM |  |  |  | 
2 | OC1(c2ccc(Cl)cc2)C[n+]2cccnc2N1C1CCCCC1.[Br-] (stereo not shown) [Compound 64] | 61.3 µM |  | 50 to 100 µM | x |  |  | 
3 | OC1(c2ccc(I)cc2)C[n+]2cccnc2N1Cc1ccccc1.[Br-] (stereo not shown) [Compound 73] | 51.7 µM |  |  | x | 50 µM | 50 to 100 µM | 

More lines, main results first:

Row | IC50 [2] | IC50 ([2]; Pseudomonas aeruginosa, PA14) | Structure (SMILES) | IC50 [1] | Influence on growth [3] | IC50 ([1]; listed as R1=Benzyl, R3=4-I—Ph, R4=H) | IC50 ([1]; listed as R1=benzyl, R3=4-I—ph, R4=H) | IC50 ([1]; Salmonella enterica)
4 | 8.89 µM |  | O=[N+]([O-])c1ccc(C2(O)C[n+]3cccnc3N2C2CCCCCCCCCCC2)cc1.[Br-] (stereo not shown) [Compound 69] | < 6 µM |  |  |  | 
5 |  | 27.1 µM | OC1(c2ccc(-c3ccccc3)cc2)C[n+]2cccnc2N1C1CCCC1.[Br-] (stereo not shown) [R1=Cyclopentyl, R3=4-biphenylyl, R4=H, 1-cyclopentyl-2-hydroxy-2-(4-biphenylyl)-2,3-dihydro-1H-imidazo[1,2-a]pyrimidin-4-ium bromide] |  | x |  |  | 25 to 50 µM
